In US7183099B2, “Inhibitors of autoinducer transporters” (Princeton University, priority 2001, dated 2007):
Read-outs that look alike come from different tables or passages of the source.

How the values were obtained:
[1] = system: V. harveyi luxN, luxS double mutant reporter strain; test: Luminescence response of V. harveyi luxN, luxS double mutant reporter; assay type: cell-based, Vibrio harveyi; conditions: culture fluids of MM30 (AI-1) and BB152 (AI-2) as sources
Method: Verification that the luxN, luxS Double Mutant Responds to AI-2. […] This was verified in a luminescence assay for response to V. harveyi AI-1 and AI-2. V. harveyi strain MM30 (luxS::Tn5) that is phenotypically AI-1^+, AI-2^−, and V. harveyi strain BB152 (luxM::Tn5) that is phenotypically AI-1^−, AI-2^+ were used as the sources of AI-1 and AI-2 respectively. The AI-1 and AI-2 present in culture fluids of these strains was tested for stimulation of light production of the V. harveyi luxN, luxS double mutant reporter strain. In this assay, autoinducer preparations from MM30, BB152 or sterile medium controls were added to the wells of microtiter plates, followed by the addition of the V. harveyi reporter strain. The resulting light production was monitored using a liquid scintillation counter in the chemiluminescence mode. Maximal stimulation of light production in the V. harveyi luxN, luxS reporter strain was compared to that produced by the Sensor 1^+, Sensor 2^− V. harveyi strain BB886 and the Sensor 1^−, Sensor 2^+V. harveyi strain BB170. These two V. harveyi strains are routinely used in this assay as reporters of AI-1 and AI-2 activity respectively.

[2] = Stability characterisation of the signaling activity; assay type: physicochemical
wild type S. typhimurium = test: Growth on AI-2 as sole carbon source; assay type: cell-based
From the text: One possibility is that AI-2 is initially used as a signal, then, at subsequent times, when AI-2 is no longer required for signal transduction, S. typhimurium internalizes it for use as a carbon source. To test this idea, we attempted to grow wild type S. typhimurium on in vitro prepared AI-2 as a sole carbon source. […] Therefore, growth on AI-2 cannot account for its disappearance from the medium. A second possibility is that the removal of AI-2 activity is required for its modification to another signal. For example, the LsrE epimerase, or another enzyme, could convert AI-2 into an internal signal. Finally, AI-2 could be internalized for degradation. In this case, elimination of AI-2 could serve to terminate the signalling process. Signal production coupled to subsequent elimination could allow S. typhimurium the flexibility to transition between several modes of existence. For example, as AI-2 is associated with the presence of many species of bacteria, high levels of AI-2 could be indicative of the transition from outside a host to the intestinal environment, whereas low levels of AI-2 could signal S. typhimurium that it has exited the intestinal tract for the next location in the infection (i.e., the macrophage) where S. typhimurium is not in association with high numbers of commensal bacteria. […]

metE-lacZ fusion = metE-lacZ fusion transcription; assay type: cell-based, S. typhimurium
Method: The insertion sites of the eight luxS regulated MudJ fusions were determined by arbitrary PCR amplification of the MudJ-chromosome fusion junctions, followed by BLAST database analysis (Caetano-Anolles, 1993; Altschul et al., 1990). One MudJ insertion was located in the metE gene. MetE is involved in the biosynthesis of methionine, that is a precursor of SAM (Weissbach and Brot, 1991). Specifically, MetE catalyzes the final step in methionine biosynthesis in the absence of vitamin B12. Transcription of metE is induced when the substrate homocysteine is available and when the intracellular concentration of methionine is low (Urbanowski and Stauffer, 1989). We reason that metE is not a true target of AI-2 regulation, but instead metE transcription is induced in the wild type luxS strain relative to the luxS null strain because homocysteine is produced during the generation of AI-2 in the LuxS^+ strain.

[3] = system: ftsQ1p2p-lacZ reporter (SdiA); test: SdiA regulated ftsQ1p2p-lacZ reporter assay; assay type: cell-based, E. coli; conditions: 10% osmotic shock fluids containing AI-2 activity, 2 h
From the text: Analysis of the effect of autoinducer on SdiA regulated gene expression. A sequence that includes the ftsQ1p and ftsQ2p promoters (Wang et al., 1991, supra) was amplified from E. coli MG1655 chromosomal DNA using the following primers: • ftsQ1p, 5′-[…]-3′ (SEQ ID NO: 19); • ftsQ2p, 5′-[…]-3′ (SEQ ID NO: 20).
The amplified product contained both the ftsQ promoters and the first 14 codons of the ftsQ gene flanked by BamHI and Bg1II sites. The ftsQ1p2p PCR product was cloned into the BamHI site of vector pMLB1034 (Silhavy et al., Experiments with Gene Fusions, Cold Spring Harbor Press, 1984) to generate a lacZ fusion that contained the promoters, ribosome binding site, and initiation codon of ftsQ. A correctly oriented clone, pMS207, and a clone containing the ftsQ1p2p insert in the opposite orientation, pMS209, were chosen for further analysis. Both inserts were sequenced to ensure that no errors were introduced during the PCR reaction.
For ftsQ regulation in E. coli, the plasmids pMS207 and pMS209 were transformed into E. coli strain MC4100 (Silhavy et al., 1984, supra), and the transformants were grown overnight in LB containing 100 mg/L ampicillin at 30° C. with aeration. For rck regulation, S. typhimurium strains BA1105 (rck::MudJ) and BA1305 (rck::MudJ sdiA) were grown overnight in LB containing 100 mg/L kanamycin at 30° C. with aeration. […]

**Q.** With CC(=O)C(=O)C(O)CO (centres unmarked) [AI-2, 4,5-dihydroxy-2,3-pentanedione] as the compound, how does the “stimulation of light production by exogenous autoinducer” value [1] read?
**A.** stimulated to produce light

**Q.** What about the “heat resistance of the activity” value [2] of the same compound?
**A.** heat resistant to about 80 but not 100 °C

**Q.** What about the “stability of the activity to acid and base” value (“stability of the activity” below) [2] of the same compound?
**A.** acid stable and base labile

**Q.** And the “time the activity is stable in cell-free fluids” value ([2]; cell-free culture supernatants and 0.4 M NaCl osmotic shock fluids, 30 °C)?
**A.** at least 24 h

**Q.** What about the “heat resistance of the activity” value ([2]; listed as signaling activity) of the same compound?
**A.** heat resistant to 80 but not 100 °C

**Q.** What about the “stability of the activity” value ([2]; listed as signaling activity) of the same compound?
**A.** acid stabile and base labile

**Q.** And the “heat resistance of the activity” value ([2]; listed as signaling compound)?
**A.** heat resistant to 80 °C but not 100 °C

**Q.** What about the “stability of the activity” value ([2]; listed as signaling compound) of the same compound?
**A.** acid stable and base labile

**Q.** What about the “growth on in vitro prepared AI-2 as a sole carbon source” value (wild type S. typhimurium) of the same compound?
**A.** could not grow on AI-2

**Q.** And the “effect of exogenous AI-2 on transcription of the metE-lacZ fusion” value (metE-lacZ fusion)?
**A.** did not affect the transcription of the metE-lacZ fusion

**Q.** What about the “change in β-galactosidase level of MC4100/pMS207” value [3] of the same compound?
**A.** this level of activity did not change under any of the conditions tested here
